Laboratory results as given in PMC9161374 (Science Translational Medicine, 2022).
Several values for one entry are separate records, joined by “and”; a condition that tells them apart may be missing. Equal values may be shown once. Read-outs that look alike come from different tables or passages of the source.

How the values were obtained:
[1] = tested on: SARS-CoV-2 (Omicron, B.1.1.529); details: Omicon, Vero E6, replicates
[2] = tested on: SARS-CoV-2 (Beta, B.1.351); experiment: microbe, parasite or virus in culture; format: cell-based; details: for % Inhibition: beta
[3] = Permeability and efflux ratio in Caco-2 cells; format: in vitro ADME; details: human
Text: ATV019, and ATV020 in Caco-2 cells.
Compound Caco-2 AB/BA (Papp (10-6 cm/s)) a Efflux ratio

[4] = CCK-8 cell viability assay; format: cell-based, African green monkey; details: African green monkey; Vero E6 cells, 48 h, CCK8
Procedure, shortened: (§1)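 Vero E6 cells, 20,000/well, exposed to compound at 0–200 μM (0, 0.01, 0.1, 1, 5, 10, 50, 75, 100, 200 μM) for 48 h; viability read by CCK-8 and expressed as percentage versus drug concentration, mean ± SD.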

[5] = tested on: Vero E6 cells; experiment: CCK-8 cell viability assay; format: cell-based, African green monkey; details: individual replicate values, Fig.S4
Procedure, shortened: as §1

[6] = tested on: SARS-CoV-2 replicon system (pBAC-SARS-CoV-2-Replicon-Luc); experiment: microbe, parasite or virus in culture; format: cell-based
[7] = tested on: SARS-CoV-2 (B.1) in Huh7 cells; experiment: Anti-SARS-CoV-2 activity in Huh7 cells (viral yield by qRT-PCR); format: cell-based; details: B.1, MOI 0.05, 48 h
[8] = tested on: SARS-CoV-2 (Delta, B.1.617.2); experiment: microbe, parasite or virus in culture; format: cell-based; details: for % Inhibition: delta
[9] = tested on: SARS-CoV-2 (B.1); experiment: Anti-SARS-CoV-2 activity in Vero E6 cells (viral yield by qRT-PCR); format: cell-based

CC(C)C(=O)OC[C@H]1O[C@@](C#N)(c2ccc3c(N)ncnn23)[C@H](O)[C@@H]1O [ATV006]
% Inhibition ([1]; 0.069 uM): 43.9482% and 49.6397% | % Inhibition ([1]; 0.208 uM): 71.5175% and 88.4612% | % Inhibition ([1]; 0.625 uM): 99.4508% and 99.8921% | % Inhibition ([1]; 2.5 uM): 99.9835% and 99.9391% | % Inhibition ([1]; 5 uM): 99.9795% and 99.9931% | % Inhibition ([1]; 10 uM): 99.9442% | EC50 ([2]; Severe acute respiratory syndrome coronavirus 2, Vero C1008, 48 h, read-out: EC50 in Vero E6 cells, SARS-CoV-2 (Beta, B.1.351)): 1130 nM | inhibition at 0.01 µM ([2]; Severe acute respiratory syndrome coronavirus 2, Vero C1008, beta, 0.01 uM, Vero E6, replicates): 0% | inhibition at 0.1 µM ([2]; Severe acute respiratory syndrome coronavirus 2, Vero C1008, beta, 0.1 uM, Vero E6, replicates): 0% | inhibition at 0.25 µM ([2]; Severe acute respiratory syndrome coronavirus 2, Vero C1008, beta, 0.25 uM, Vero E6, replicates): 0% | inhibition at 0.5 µM ([2]; Severe acute respiratory syndrome coronavirus 2, Vero C1008, beta, 0.5 uM, Vero E6, replicates): 0% | inhibition at 1 µM ([2]; Severe acute respiratory syndrome coronavirus 2, Vero C1008, beta, 1 uM, Vero E6, replicates): 32.1% | inhibition at 2 µM ([2]; Severe acute respiratory syndrome coronavirus 2, Vero C1008, beta, 2 uM, Vero E6, replicates): 99.6% | inhibition at 5 µM ([2]; Severe acute respiratory syndrome coronavirus 2, Vero C1008, beta, 5 uM, Vero E6, replicates): 99.7% | inhibition at 10 µM ([2]; Severe acute respiratory syndrome coronavirus 2, Vero C1008, beta, 10 uM, Vero E6, replicates): 99.9% | inhibition at 50 µM ([2]; Severe acute respiratory syndrome coronavirus 2, Vero C1008, beta, 50 uM, Vero E6, replicates): 99.9% | EC90 ([2]; Severe acute respiratory syndrome coronavirus 2, Vero C1008, read-out: EC90 (Confidence 95%), Vero-E6, Beta B.1.351): 1360 nM | % Inhibition ([2]; 1 uM, Vero E6, replicates): 16.537% | % Inhibition ([2]; 2 uM, Vero E6, replicates): 99.486% | % Inhibition ([2]; 5 uM, Vero E6, replicates): 99.5312% | % Inhibition ([2]; 10 uM, Vero E6, replicates): 99.9431% | % Inhibition ([2]; 50 uM, Vero E6, replicates): 99.9484% | efflux ratio [3]: 1.7 | Papp A→B ([3]; AB): 0.51 ×10⁻⁶ cm/s | Papp B→A ([3]; BA): 0.87 ×10⁻⁶ cm/s | CC50 at 48 h [4]: 128000 nM | cell viability (% of control) ([5]; 0.01 μM compound, 0.01 µM): 93.4165 % of control and 118.52 % of control and 111.314 % of control | cell viability (% of control) ([5]; 0.1 μM compound, 0.1 µM): 114.92 % of control and 109.106 % of control and 122.304 % of control | cell viability (% of control) ([5]; 1 μM compound, 1 µM): 103.338 % of control and 92.7243 % of control and 89.4018 % of control | cell viability (% of control) ([5]; 2 μM compound, 2 µM): 94.6163 % of control and 92.5859 % of control and 102 % of control | cell viability (% of control) ([5]; 5 μM compound, 5 µM): 130.333 % of control and 131.994 % of control and 107.906 % of control | cell viability (% of control) ([5]; 10 μM compound, 10 µM): 124.057 % of control and 118.52 % of control and 118.981 % of control | cell viability (% of control) ([5]; 50 μM compound, 50 µM): 93.4165 % of control and 89.4165 % of control | cell viability (% of control) ([5]; 75 μM compound, 75 µM): 60.8815 % of control and 65.7193 % of control and 58.2133 % of control | cell viability (% of control) ([5]; 100 μM compound, 100 µM): 50.7027 % of control and 56.7073 % of control and 50.0144 % of control | cell viability (% of control) ([5]; 200 μM compound, 200 µM): 35.664 % of control and 47.0944 % of control and 42.1024 % of control | activity in the replicon system in comparison with parent GS-441524 [6]: improved the inhibitory activities | EC50 ([6]; Severe acute respiratory syndrome coronavirus 2, HEK-293T, 60 h, read-out: EC50 (Confidence 95%), replicon): 521 nM | EC90 ([6]; Severe acute respiratory syndrome coronavirus 2, HEK-293T, 60 h, read-out: EC90 (Confidence 95%), replicon): 3220 nM | EC50 ([7]; Severe acute respiratory syndrome coronavirus 2, Huh-7, read-out: EC50 (Confidence 95%) in Huh7 cells): 1630 nM | EC90 ([7]; Severe acute respiratory syndrome coronavirus 2, Huh-7, read-out: EC90 (Confidence 95%) in Huh7 cells): 1960 nM | EC50 ([8]; Severe acute respiratory syndrome coronavirus 2, Vero C1008, 48 h, read-out: EC50 in Vero E6 cells, SARS-CoV-2 (Delta, B.1.617.2)): 349 nM | inhibition at 0.01 µM ([8]; Severe acute respiratory syndrome coronavirus 2, Vero C1008, delta, 0.01 uM, Vero E6, replicates): 0% | inhibition at 0.1 µM ([8]; Severe acute respiratory syndrome coronavirus 2, Vero C1008, delta, 0.1 uM, Vero E6, replicates): 0% | inhibition at 0.25 µM ([8]; Severe acute respiratory syndrome coronavirus 2, Vero C1008, delta, 0.25 uM, Vero E6, replicates): 13.4% | inhibition at 0.5 µM ([8]; Severe acute respiratory syndrome coronavirus 2, Vero C1008, delta, 0.5 uM, Vero E6, replicates): 86.8% | inhibition at 1 µM ([8]; Severe acute respiratory syndrome coronavirus 2, Vero C1008, delta, 1 uM, Vero E6, replicates): 94.7% | inhibition at 2 µM ([8]; Severe acute respiratory syndrome coronavirus 2, Vero C1008, delta, 2 uM, Vero E6, replicates): 96.7% | inhibition at 5 µM ([8]; Severe acute respiratory syndrome coronavirus 2, Vero C1008, delta, 5 uM, Vero E6, replicates): 95.5% | inhibition at 10 µM ([8]; Severe acute respiratory syndrome coronavirus 2, Vero C1008, delta, 10 uM, Vero E6, replicates): 99.9% | inhibition at 50 µM ([8]; Severe acute respiratory syndrome coronavirus 2, Vero C1008, delta, 50 uM, Vero E6, replicates): 99.9% | EC90 ([8]; Severe acute respiratory syndrome coronavirus 2, Vero C1008, read-out: EC90 (Confidence 95%), Vero-E6, Delta B.1.617.2): 506 nM | % Inhibition ([8]; 0.25 uM, Vero E6, replicates): 17.4307% | % Inhibition ([8]; 0.5 uM, Vero E6, replicates): 86.6826% | % Inhibition ([8]; 1 uM, Vero E6, replicates): 92.7523% | % Inhibition ([8]; 2 uM, Vero E6, replicates): 95.2669% | % Inhibition ([8]; 5 uM, Vero E6, replicates): 93.5585% | % Inhibition ([8]; 10 uM, Vero E6, replicates): 99.4329% | % Inhibition ([8]; 50 uM, Vero E6, replicates): 99.3835% | % Inhibition ([9]; 1 μM, replicates, sheet Fig.S3): 3.722% | % Inhibition ([9]; 2 μM, replicates, sheet Fig.S3): 87.0049% | % Inhibition ([9]; 5 μM, replicates, sheet Fig.S3): 91.6411% | % Inhibition ([9]; 10 μM, replicates, sheet Fig.S3): 90.9393% | % Inhibition ([9]; B.1, 1 uM, Vero E6, replicates, 1 µM): 3.249% | % Inhibition ([9]; B.1, 2 uM, Vero E6, replicates, 2 µM): 99.386% | % Inhibition ([9]; B.1, 5 uM, Vero E6, replicates, 5 µM): 99.8149% | % Inhibition ([9]; B.1, 10 uM, Vero E6, replicates, 10 µM): 99.9851% | % Inhibition ([9]; B.1, 50 uM, Vero E6, replicates, 50 µM): 99.991% | inhibition at 0.1 µM ([9]; Severe acute respiratory syndrome coronavirus 2, Vero C1008, 0.1 μM, replicates, sheet Fig.S3): 0% | inhibition at 0.5 µM ([9]; Severe acute respiratory syndrome coronavirus 2, Vero C1008, 0.5 μM, replicates, sheet Fig.S3): 0% | inhibition at 2 µM ([9]; Severe acute respiratory syndrome coronavirus 2, Vero C1008, 2 μM, replicates, sheet Fig.S3): 87.7% | inhibition at 5 µM ([9]; Severe acute respiratory syndrome coronavirus 2, Vero C1008, 5 μM, replicates, sheet Fig.S3): 93.3% | inhibition at 10 µM ([9]; Severe acute respiratory syndrome coronavirus 2, Vero C1008, 10 μM, replicates, sheet Fig.S3): 93.2% | inhibition at 0.01 µM ([9]; Severe acute respiratory syndrome coronavirus 2, Vero C1008, B.1, 0.01 uM, Vero E6, replicates): 0% | inhibition at 0.1 µM ([9]; Severe acute respiratory syndrome coronavirus 2, Vero C1008, B.1, 0.1 uM, Vero E6, replicates): 0% | inhibition at 0.25 µM ([9]; Severe acute respiratory syndrome coronavirus 2, Vero C1008, B.1, 0.25 uM, Vero E6, replicates): 0% | inhibition at 0.5 µM ([9]; Severe acute respiratory syndrome coronavirus 2, Vero C1008, B.1, 0.5 uM, Vero E6, replicates): 0% | inhibition at 1 µM ([9]; Severe acute respiratory syndrome coronavirus 2, Vero C1008, B.1, 1 uM, Vero E6, replicates): 3.85% | inhibition at 2 µM ([9]; Severe acute respiratory syndrome coronavirus 2, Vero C1008, B.1, 2 uM, Vero E6, replicates): 97.4% | inhibition at 5 µM ([9]; Severe acute respiratory syndrome coronavirus 2, Vero C1008, B.1, 5 uM, Vero E6, replicates): 99.8% | inhibition at 10 µM ([9]; Severe acute respiratory syndrome coronavirus 2, Vero C1008, B.1, 10 uM, Vero E6, replicates): 99.9% | inhibition at 50 µM ([9]; Severe acute respiratory syndrome coronavirus 2, Vero C1008, B.1, 50 uM, Vero E6, replicates): 100% | EC90 ([9]; Severe acute respiratory syndrome coronavirus 2, Vero C1008, read-out: EC90 (Confidence 95%)): 2180 nM | EC50 ([9]; Severe acute respiratory syndrome coronavirus 2, Vero C1008, MOI 0.05, 48 h): 1360 nM
